Assay results reported in US20070117743A1, “New antitumoral compounds” (priority 2003, published 2007).
Where a SMILES comes first, the peptide text is derived from it. Bridges are numbered along the chain shown (N, C = ends). [ ]: non-standard residue; d: D form. The star is where a group is joined. d(aIle) = CC[C@H](C)[C@@H](N)C(=O)O; d(aThr) = C[C@@H](O)[C@@H](N)C(=O)O; Myristoyl = CCCCCCCCCCCCCC(=O)*; Orn = NCCC[C@H](N)C(=O)O; Dhb = C/C=C(\N)C(=O)O

Key:
Type in all cases: cell-based, human
PANC-1 = assay: SRB colorimetric assay of cell growth and viability, PANC-1; conditions: 48 hours exposure; for CC50: read-out: LC50 PANC-1
A-549 = assay: SRB colorimetric assay of cell growth and viability, A-549; conditions: 48 hours exposure; for GI50: read-out: GI50 A-549; for CC50: read-out: LC50 A-549
HT-29 = assay: SRB colorimetric assay of cell growth and viability, HT-29; conditions: 48 hours exposure; for GI50: read-out: GI50 HT-29; for CC50: read-out: LC50 HT-29
DU-145 = assay: SRB colorimetric assay of cell growth and viability, DU-145; conditions: 48 hours exposure
IGROV-ET = assay: SRB colorimetric assay of cell growth and viability, IGROV-ET; conditions: 48 hours exposure; for CC50: read-out: LC50 IGROV-ET
K-562 = assay: SRB colorimetric assay of cell growth and viability, K-562; conditions: 48 hours exposure; for CC50: read-out: LC50 K-562
SK-OV-3 = assay: SRB colorimetric assay of cell growth and viability, SK-OV-3; conditions: 48 hours exposure; for GI50: read-out: GI50 SKOV-3; for CC50: read-out: LC50 SKOV-3
Text: The finality of this assay is to interrupt the growth of a “in vitro” tumor cell culture by means a continued exhibition of the cells to the sample to be testing.
A colorimetric type of assay, using sulforhodamine B (SRB) reaction has been adapted for a quantitative measurement of cell growth and viability [following the technique described by Philip Skehan, et al. (1990), New colorimetric cytotoxicity assay for anticancer drug screening, J. Natl. Cancer Inst., 82:1107-1112].
This form of the assay employs 96 well cell culture microplates of 9 mm diameter (Faircloth, 1988; Mosmann, 1983). Most of the cell lines are obtained from American Type Culture Collection (ATCC) derived from different human cancer types.
Cells are maintained in RPMI 1640 10% FBS, supplemented with 0.1 g/l penicillin and 0.1 g/l streptomycin sulfate and then incubated at 37° C., 5% CO2 and 98% humidity. For the experiments, cells were harvested from subconfluent cultures using trypsin and resuspended in fresh medium before plating.
Cells are seeded in 96 well microtiter plates, at 5×10^3 cells per well in aliquots of 195 μL medium, and they are allowed to attach to the plate surface by growing in drug free medium for 18 hours. Afterward, samples are added in aliquots of 5 μL in a ranging from 10 to 10^−8 μg/mL, dissolved in DMSO:EtOH:PBS (0.5:0.5:99). After 48 hours exposure, the antitumor effect are measured by the SRB methodology: cells are fixed by adding 50 μL of cold 50% (wt/vol) trichloroacetic acid (TCA) and incubating for 60 minutes at 4° C. Plates are washed with deionized water and dried. One hundred μL of SRB solution (0.4% wt/vol in 1% acetic acid) is added to each microtiter well and incubated for 10 minutes at room temperature. Unbound SRB is removed by washing with 1% acetic acid. Plates are air dried and bound stain is solubilized with Tris buffer. Optical densities are read on a automated spectrophotometric plate reader at a single wavelength of 490 nm.
The values for mean+/− SD of data from triplicate wells are calculated. Some parameters for cellular responses can be calculated: GI=growth inhibition, TGI=total growth inhibition (cytostatic effect) and LC=cell killing (cytotoxic effect).

LoVo = assay: SRB colorimetric assay of cell growth and viability, LoVo; conditions: 48 hours exposure; for CC50: read-out: LC50 LOVO
IGROV-1 = assay: SRB colorimetric assay of cell growth and viability, IGROV-1; conditions: 48 hours exposure
LoVo-Dox = assay: SRB colorimetric assay of cell growth and viability, LoVo-Dox; conditions: 48 hours exposure
How it was run: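 First, 5×10^3 cells per well attach for 18 hours in RPMI 1640 with 10% FBS at 37° C and 5% CO2. Next, samples spanning 10 to 10^−8 μg/mL are added for 48 hours. Finally, cells are fixed with TCA, stained with SRB for 10 minutes and read at 490 nm.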

LNCaP = assay: SRB colorimetric assay of cell growth and viability, LNCaP; conditions: 48 hours exposure; for GI50: read-out: GI50 LN-caP; for CC50: read-out: LC50 LN-caP
SK-MEL-28 = assay: SRB colorimetric assay of cell growth and viability, SK-MEL-28; conditions: 48 hours exposure; for CC50: read-out: LC50 MEL-28

Row | Compound | GI50 (PANC-1) [µM] | TGI PANC-1 (PANC-1) [Molar] | CC50 (PANC-1) [µM] | TGI A-549 (A-549) [Molar] | GI50 (A-549) [µM] | CC50 (A-549) [µM] | TGI HT-29 (HT-29) [Molar] | GI50 (HT-29) [µM] | CC50 (HT-29) [µM] | GI50 (DU-145) [µM] | LC50 (concentration causing 50% net cell kill) (DU-145) [µM] | TGI DU-145 (DU-145) [Molar] | GI50 (IGROV-ET) [µM] | TGI IGROV-ET (IGROV-ET) [Molar] | CC50 (IGROV-ET) [µM] | GI50 (K-562) [µM] | TGI K-562 (K-562) [Molar] | CC50 (K-562) [µM] | TGI SKOV-3 (SK-OV-3) [Molar] | GI50 (SK-OV-3) [µM] | further results
1 | C/C=C1\NC(=O)[C@H](Cc2ccccc2)NC(=O)[C@@H](C(C)C)NC(=O)[C@@H]([C@@H](C)CC)NC(=O)[C@H](NC(=O)[C@H](NC(=O)[C@H](CCCN)NC(=O)[C@H]2CCCN2C(=O)[C@H](NC(=O)[C@@H](NC(=O)[C@@H](NC(=O)[C@H](NC(=O)CCCCC(C)(F)F)C(C)C)[C@@H](C)O)C(C)C)C(C)C)[C@@H](C)CC)[C@@H](C)OC(=O)[C@H](C(C)C)NC1=O [Compound 28, [6,6-dFHep^14]-KF] | 1.48 | 2.52E−06 | 4.3 | 1.04E−06 | 0.328 | 4.25 | 1.54E−06 | 0.649 | 3.63 | 0.215 | 2.09 | 5.59E−07 | 0.228 | 3.59E−07 | 0.568 | 1.88 | 2.99E−04 | 4.75 | 3.36E−07 | 0.145 | CC50 (SK-OV-3): 1.01 µM; GI50 (LoVo): 0.196 µM; TGI LOVO (LoVo): 3.70E−07 Molar; CC50 (LoVo): 0.872 µM; GI50 (IGROV-1): 0.334 µM; LC50 (concentration causing 50% net cell killing) (IGROV-1): 2.55 µM; TGI IGROV (IGROV-1): 7.86E−07 Molar; GI50 (LoVo-Dox): 0.172 µM; TGI LOVO-DOX (LoVo-Dox): 3.18E−07 Molar; TGI LN-caP (LNCaP): 1.09E−06 Molar; GI50 (LNCaP): 0.363 µM; CC50 (LNCaP): 3.1 µM; GI50 (SK-MEL-28): 1.47 µM; TGI MEL-28 (SK-MEL-28): 2.55E−06 Molar; CC50 (SK-MEL-28): 4.41 µM
2 | C/C=C1\NC(=O)[C@H](Cc2ccccc2)NC(=O)[C@@H](C(C)C)NC(=O)[C@@H]([C@@H](C)CC)NC(=O)[C@H](NC(=O)[C@H](NC(=O)[C@H](CCCN)NC(=O)[C@H]2CCCN2C(=O)[C@H](NC(=O)CCCCCCCCCCCCC)C(C)C)[C@@H](C)CC)[C@@H](C)OC(=O)[C@H](C(C)C)NC1=O [Compound 32, [noVal^11, noThr^12, noD-Val^13, Mst^14]-KF] (Myristoyl-[dV][dP][Orn][d(aIle)][d(aThr)][d(aIle)][dV]F[Dhb]V; ester 5-C) | 1.78 | 3.12E−06 | 5.49 | 7.83E−06 | 5.19 | 7.83 | 7.83E−06 | 7.66 | 7.83 | 2.12 | 6.81 | 3.80E−06 | 2.06 | 3.26E−06 | 5.16 | 1.91 | 4.21E−06 | 7.83 | 6.27E−06 | 2.34 | CC50 (SK-OV-3): 7.83 µM; GI50 (LoVo): 7.83 µM; TGI LOVO (LoVo): 7.83E−06 Molar; CC50 (LoVo): 7.83 µM; GI50 (IGROV-1): 2.29 µM; LC50 (concentration causing 50% net cell killing) (IGROV-1): 5.51 µM; TGI IGROV (IGROV-1): 3.56E−06 Molar; GI50 (LoVo-Dox): 2.15 µM; TGI LOVO-DOX (LoVo-Dox): 3.66E−06 Molar; CC50 (LoVo-Dox; read-out: LC50 LOVO-DOX): 6.21 µM; TGI LN-caP (LNCaP): 3.08E−06 Molar; GI50 (LNCaP): 1.42 µM; CC50 (LNCaP): 6.67 µM; GI50 (SK-MEL-28): 2.08 µM; TGI MEL-28 (SK-MEL-28): 3.63E−06 Molar; CC50 (SK-MEL-28): 6.34 µM
